Results taken from the supplement of paper PMC4862054.

How the values were obtained:
Settings in all cases: incubation time: 72 h
[1] = system: CAL-148; assay: drug sensitivity score (DSS), CellTiter-Glo (DSS (AUC-based score)); higher = stronger drug effect (viability inhibition or cytotoxicity); extreme values may be limits of the assay
Summary of the method: (§1)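 Breast cancer cell lines, seeded as 20 µl suspension, were incubated 72 h with compound in 384-well plates at 5 concentrations in 10-fold steps over a 10,000-fold range set for each compound. Fluorescence from CellTox Green was read at 485/520 nm before CellTiter-Glo luminescence, which was read after 10 min at room temperature. Every plate was normalised to 0.1 % DMSO and a positive kill control, and the drug sensitivity score was taken from the area under the fitted dose-response curve.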

[2] = system: HCC1599; assay: as above
Summary of the method: as §1

[3] = system: BT-549; assay: as above
Summary of the method: as §1

[4] = system: SK-BR-3; assay: as above
Summary of the method: as §1

[5] = system: BT-474; assay: as above
Summary of the method: as §1

[6] = system: MCF-10A; assay: as above
Summary of the method: as §1

[7] = system: CAL-148; assay: drug sensitivity score (DSS), CellTox Green (DSS (AUC-based score)); higher = stronger drug effect (viability inhibition or cytotoxicity); extreme values may be limits of the assay
Summary of the method: as §1

[8] = system: HCC1599; assay: as above
Summary of the method: as §1

[9] = system: HDQ-P1; assay: as above
Summary of the method: as §1

[10] = system: CAL-120; assay: as above
Summary of the method: as §1

[11] = system: CAL-51; assay: as above
Summary of the method: as §1

[12] = system: Hs578T; assay: as above
Summary of the method: as §1

[13] = system: DU-4475; assay: as above
Summary of the method: as §1

[14] = system: MFM-223; assay: as above
Summary of the method: as §1

[15] = system: BT-549; assay: as above
Summary of the method: as §1

[16] = system: MDA-MB-231; assay: as above
Summary of the method: as §1

[17] = system: MDA-MB-453; assay: as above
Summary of the method: as §1

[18] = system: HCC1937; assay: as above
Summary of the method: as §1

[19] = system: MDA-MB-436; assay: as above
Summary of the method: as §1

[20] = system: CAL-85-1; assay: as above
Summary of the method: as §1

[21] = system: BT-474; assay: as above
Summary of the method: as §1

[22] = system: MDA-MB-468; assay: as above
Summary of the method: as §1

[23] = system: MCF-10A; assay: as above
Summary of the method: as §1

[24] = system: HCC1143; assay: as above
Summary of the method: as §1

Measured: drug sensitivity score

CCc1c(C(=O)C(N)=O)c2c(OCC(=O)O)cccc2n1Cc1ccccc1 [Varespladib]
0: [1] | [2] | [3] | [4] | [5] | [6] | [7] | [8] | [9] | [10] | [11] | [12] | [13] | [14] | [15] | [16] | [17] | [18] | [19] | [20] | [21] | [22] | [23] | [24]
